± gives the expanded uncertainty stated by the source.
Test: molar heat capacity at constant pressure
Details: 101.33 kPa, Crystal, Small sample (50 mg) DSC

[Ca+2].[O]=[Mo](=[O])([O-])[O-] [calcium molybdate(VI)]
Details	molar heat capacity at constant pressure [J/K/mol]
395.5 K	127.3 ± 5.4
396.4 K	127.5 ± 5.4
396.5 K	127.4 ± 5.4
397.4 K	127.6 ± 5.4
397.5 K	127.6 ± 5.4
398.4 K	127.6 ± 5.4
398.5 K	127.7 ± 5.4
399.4 K	127.7 ± 5.4
399.5 K	127.8 ± 5.4
400 K	127.9 ± 5.4
400.4 K	127.8 ± 5.4
400.5 K	127.9 ± 5.4
401.4 K	127.9 ± 5.4
401.5 K	128 ± 5.4
402.4 K	128.1 ± 5.4
402.5 K	128.1 ± 5.4
403.4 K	128.2 ± 5.4
403.5 K	128.2 ± 5.4
404.4 K	128.3 ± 5.4
404.5 K	128.3 ± 5.4
405.4 K	128.5 ± 5.5
405.5 K	128.3 ± 5.4
406.4 K	128.6 ± 5.5
406.5 K	128.4 ± 5.4
407.4 K	128.7 ± 5.5
407.5 K	128.5 ± 5.5
408.4 K	128.7 ± 5.5
408.5 K	128.6 ± 5.5
409.4 K	128.8 ± 5.5
409.5 K	128.7 ± 5.5
410 K	128.9 ± 5.5
410.4 K	128.9 ± 5.5
410.5 K	128.8 ± 5.5
411.4 K	129 ± 5.5
411.5 K	128.9 ± 5.5
412.4 K	129 ± 5.5
412.5 K	129 ± 5.5
413.4 K	129.1 ± 5.5
413.5 K	129.1 ± 5.5
414.4 K	129.2 ± 5.5
414.5 K	129.2 ± 5.5
415.4 K	129.4 ± 5.5
415.5 K	129.3 ± 5.5
416.4 K	129.5 ± 5.5
416.5 K	129.4 ± 5.5
417.4 K	129.6 ± 5.5
417.5 K	129.5 ± 5.5
418.4 K	129.7 ± 5.5
418.5 K	129.6 ± 5.5
419.4 K	129.8 ± 5.5
419.5 K	129.7 ± 5.5
420 K	129.8 ± 5.5
420.4 K	129.9 ± 5.5
420.5 K	129.8 ± 5.5
421.4 K	130 ± 5.5
421.5 K	129.9 ± 5.5
422.4 K	130.1 ± 5.5
422.5 K	130 ± 5.5
423.4 K	130.2 ± 5.5
423.5 K	130.1 ± 5.5
424.4 K	130.3 ± 5.5
424.6 K	130.1 ± 5.5
425.4 K	130.4 ± 5.5
425.6 K	130.2 ± 5.5
426.4 K	130.5 ± 5.5
426.6 K	130.3 ± 5.5
427.4 K	130.6 ± 5.5
427.6 K	130.4 ± 5.5
428.4 K	130.7 ± 5.5
428.6 K	130.5 ± 5.5
429.4 K	130.7 ± 5.5
429.6 K	130.7 ± 5.5
430 K	130.7 ± 5.5
430.4 K	130.8 ± 5.5
430.6 K	130.9 ± 5.6
431.4 K	130.8 ± 5.5
431.6 K	131 ± 5.6
432.4 K	130.8 ± 5.5
432.6 K	131.1 ± 5.6
433.4 K	130.9 ± 5.6
433.6 K	131.2 ± 5.6
434.4 K	130.9 ± 5.6
434.6 K	131.3 ± 5.6
435.4 K	131 ± 5.6
435.6 K	131.3 ± 5.6
436.4 K	131 ± 5.6
436.6 K	131.3 ± 5.6
437.4 K	131.1 ± 5.6
437.6 K	131.4 ± 5.6
438.4 K	131.2 ± 5.6
438.6 K	131.4 ± 5.6
439.4 K	131.3 ± 5.6
439.6 K	131.4 ± 5.6
440 K	131.5 ± 5.6
440.4 K	131.4 ± 5.6
440.6 K	131.5 ± 5.6
441.4 K	131.5 ± 5.6
441.6 K	131.6 ± 5.6
442.4 K	131.6 ± 5.6
442.6 K	131.7 ± 5.6
443.4 K	131.7 ± 5.6
443.6 K	131.9 ± 5.6
444.4 K	131.7 ± 5.6
444.6 K	132 ± 5.6
445.4 K	131.8 ± 5.6
445.6 K	132.2 ± 5.6
446.4 K	132 ± 5.6
446.6 K	132.3 ± 5.6
447.4 K	132.1 ± 5.6
447.6 K	132.4 ± 5.6
448.4 K	132.2 ± 5.6
448.6 K	132.5 ± 5.6
449.4 K	132.3 ± 5.6
449.6 K	132.6 ± 5.6
450 K	132.4 ± 5.6
450.4 K	132.4 ± 5.6
450.6 K	132.6 ± 5.6
451.4 K	132.5 ± 5.6
451.6 K	132.6 ± 5.6
452.4 K	132.5 ± 5.6
452.6 K	132.7 ± 5.6
453.4 K	132.6 ± 5.6
453.6 K	132.7 ± 5.6
454.4 K	132.7 ± 5.6
454.6 K	132.7 ± 5.6
455.4 K	132.7 ± 5.6
455.6 K	132.7 ± 5.6
456.4 K	132.8 ± 5.6
456.6 K	132.7 ± 5.6
457.4 K	132.9 ± 5.6
457.6 K	132.8 ± 5.6
458.4 K	133 ± 5.6
458.7 K	132.9 ± 5.6
459.4 K	133 ± 5.6
459.7 K	133.1 ± 5.6
460 K	133.2 ± 5.7
460.4 K	133.1 ± 5.6
460.7 K	133.2 ± 5.7
461.4 K	133.2 ± 5.7
461.7 K	133.4 ± 5.7
462.4 K	133.3 ± 5.7
462.7 K	133.5 ± 5.7
463.4 K	133.4 ± 5.7
463.7 K	133.6 ± 5.7
464.4 K	133.5 ± 5.7
464.7 K	133.7 ± 5.7
465.4 K	133.6 ± 5.7
465.7 K	133.7 ± 5.7
466.4 K	133.6 ± 5.7
466.7 K	133.8 ± 5.7
467.4 K	133.7 ± 5.7
467.7 K	133.8 ± 5.7
468.4 K	133.8 ± 5.7
468.7 K	133.9 ± 5.7
469.4 K	133.9 ± 5.7
469.7 K	133.9 ± 5.7
470 K	133.9 ± 5.7
470.4 K	134 ± 5.7
470.7 K	133.9 ± 5.7
471.4 K	134 ± 5.7
471.7 K	134 ± 5.7
472.4 K	134 ± 5.7
472.7 K	134.1 ± 5.7
473.4 K	134.1 ± 5.7
473.7 K	134.2 ± 5.7
474.4 K	134.1 ± 5.7
474.7 K	134.3 ± 5.7
475.4 K	134.1 ± 5.7
475.7 K	134.4 ± 5.7
476.4 K	134.2 ± 5.7
476.7 K	134.4 ± 5.7
477.4 K	134.2 ± 5.7
477.7 K	134.4 ± 5.7
478.4 K	134.4 ± 5.7
478.7 K	134.5 ± 5.7
479.4 K	134.5 ± 5.7
479.7 K	134.6 ± 5.7
480 K	134.6 ± 5.7
480.4 K	134.6 ± 5.7
480.7 K	134.7 ± 5.7
481.4 K	134.7 ± 5.7
481.7 K	134.7 ± 5.7
482.4 K	134.8 ± 5.7
482.7 K	134.7 ± 5.7
483.4 K	134.9 ± 5.7
483.7 K	134.8 ± 5.7
484.4 K	135 ± 5.7
484.7 K	134.9 ± 5.7
485.4 K	135.1 ± 5.7
485.7 K	135 ± 5.7
486.4 K	135.2 ± 5.7
486.7 K	135.1 ± 5.7
487.4 K	135.2 ± 5.7
487.7 K	135.1 ± 5.7
488.4 K	135.3 ± 5.7
488.7 K	135.2 ± 5.7
489.4 K	135.4 ± 5.7
489.7 K	135.2 ± 5.7
490 K	135.3 ± 5.7
490.4 K	135.4 ± 5.7
490.7 K	135.3 ± 5.7
491.4 K	135.5 ± 5.7
491.7 K	135.4 ± 5.7
492.4 K	135.5 ± 5.7
492.7 K	135.6 ± 5.8
493.4 K	135.5 ± 5.7
493.8 K	135.7 ± 5.8
494.4 K	135.5 ± 5.7
494.8 K	135.7 ± 5.8

Reference: the NIST ThermoML archive (doi:10.1016/j.tca.2018.01.023)
